According to ChEMBL document CHEMBL1132531, “From histamine to imidazolylalkyl-sulfonamides: the design of a novel series of histamine H3-receptor antagonists” (Bioorg Med Chem Lett, 1999):

Legend:
[1] = target: Histamine H3 receptor (Cavia porcellus) (UniProt Q9JI35); assay: Inhibition of H3-receptor mediated neurogenic contractions in the isolated guinea pig ileum assay; assay type: functional, tissue-based
[2] = target: T1, Histamine H3 receptor (Cavia porcellus, UniProt Q9JI35); assay: Binding affinity towards histamine H3 receptor using [3H](R)-alpha-methylhistamine as radioligand in guinea pig cortical homogenates
T1 sequence (Q9JI35 whole entry): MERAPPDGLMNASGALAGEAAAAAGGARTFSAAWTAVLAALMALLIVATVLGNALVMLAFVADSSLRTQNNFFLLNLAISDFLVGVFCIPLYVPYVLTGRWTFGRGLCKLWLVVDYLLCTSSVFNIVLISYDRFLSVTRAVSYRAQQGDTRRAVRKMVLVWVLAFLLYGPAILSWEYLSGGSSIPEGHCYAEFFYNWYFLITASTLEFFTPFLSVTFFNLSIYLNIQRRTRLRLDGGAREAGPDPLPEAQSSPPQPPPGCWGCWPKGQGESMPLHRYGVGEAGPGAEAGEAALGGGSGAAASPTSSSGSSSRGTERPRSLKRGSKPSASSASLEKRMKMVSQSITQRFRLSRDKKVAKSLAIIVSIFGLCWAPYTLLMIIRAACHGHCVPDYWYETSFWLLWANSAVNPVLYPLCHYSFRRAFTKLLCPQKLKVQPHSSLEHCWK

[3] = target: Histamine H3 receptor (Cavia porcellus) (UniProt Q9JI35); assay: Compound was tested for inhibition of histamine H3-receptor mediated neurogenic contractions in the isolated guinea pig ileum assay; Full agonist; assay type: functional, tissue-based
[4] = target: T1, Histamine H3 receptor; assay: Binding affinity towards histamine H3 receptor using [3H](R)-alpha-methylhistamine as radioligand in guinea pig ileum LMMP homogenates; assay type: tissue-based
[5] = target: Histamine H3 receptor (Cavia porcellus) (UniProt Q9JI35); assay: Compound was tested for inhibition of histamine H3-receptor mediated neurogenic contractions in the isolated guinea pig ileum assay; Partial agonist; assay type: functional, tissue-based

Sequence of Histamine H3 receptor (Cavia porcellus) (Q9JI35 whole entry): as above

## O=S(=O)(NCCCCc1c[nH]cn1)c1ccc2ccccc2c1
[1]
  pKB: 6.81
[2]
  Ki: 22.9 nM

## O=S(=O)(NCCCCCCCc1c[nH]cn1)c1ccc2ccccc2c1
[1]
  pKB: 6.88
[2]
  Ki: 50.1 nM

## O=S(=O)(CCC1CCCCC1)NCCc1c[nH]cn1
[1]
  pKB: 5.87
[2]
  Ki: 16.2 nM

## NCCc1c[nH]cn1 [HISTAMINE]
[3]
  p[A]50: 7.15
[2]
  Ki: 0.145 nM
[4]
  Ki: 10.5 nM

## O=S(=O)(NCCc1c[nH]cn1)c1ccc2ccccc2c1
[1]
  pKB: 6.7

## C[C@@H](N)Cc1c[nH]cn1
[3]
  p[A]50: 7.94
[2]
  Ki: 0.0851 nM
[4]
  Ki: 0.151 nM

## O=S(=O)(Cc1ccccc1)NCCc1c[nH]cn1
[1]
  pKB: < 5

## O=S(=O)(NCCCCCCCCc1c[nH]cn1)c1ccc2ccccc2c1
[1]
  pKB: 6.62

## O=S(=O)(NCCCCCCCCCCc1c[nH]cn1)c1ccc2ccccc2c1
[1]
  pKB: 5.79
[2]
  Ki: 138 nM

## O=S(=O)(NCCCCCc1c[nH]cn1)c1ccc2ccccc2c1
[1]
  pKB: 6.96
[2]
  Ki: 14.8 nM

## CS(=O)(=O)NCCc1c[nH]cn1
[5]
  pKB: 4.77
[4]
  Ki: 186 nM

## O=S(=O)(NCCCc1c[nH]cn1)c1ccc2ccccc2c1
[1]
  pKB: 5.93
[2]
  Ki: 14.1 nM

## C[C@H](Cc1c[nH]cn1)NS(=O)(=O)c1ccc2ccccc2c1
[3]
  p[A]50: 6.02
[2]
  Ki: 1.02 nM

## O=S(=O)(NCCCCCCc1c[nH]cn1)c1ccc2ccccc2c1
[1]
  pKB: 7.11
[2]
  Ki: 25.1 nM

## O=S(=O)(/C=C/c1ccccc1)NCCc1c[nH]cn1
[1]
  pKB: < 5.5
[2]
  Ki: 115 nM

## O=S(=O)(Cc1ccc2ccccc2c1)NCCc1c[nH]cn1
[1]
  pKB: < 5
[2]
  Ki: 490 nM
[4]
  Ki: 1150 nM
